Measured values: US9724338B2, “Methods of using (+)-1,4-dihydro-7-[(3S,4S)-3-methoxy-4-(methylamino)-1-pyrrolidinyl]-4-OXO-1-(2-thiazolyl)-1,8-naphthyridine-3-carboxylic acid for treatment of antecedent hematologic disorders” (SUNESIS PHARMACEUTICALS, INC., priority 2007, dated 2017)

How the values were obtained:
[1] = Solubility of SNS-595 in compositions for injection or intravenous infusion (Example 1); format: physicochemical; conditions: Acidic compositions (<pH 4)
Text: The resulting composition is also suitable for lyophilization. The lyophilized form is then reconstituted with sterile water to the appropriate concentration prior to use.

[2] = test system: relapsed CMML (transformed to AML); assay: Clinical study: treatment with SNS-595 of a patient with relapsed CMML (Example 3); format: in vivo, human; conditions: 50 mg/m^2 twice a week; for Marrow blasts: slow IV push
Method: A patient with relapsed CMML (transformed to AML) was enrolled. The patient was diagnosed about 17 months prior to the study, was treated with 1 cycle of a Southwest Oncology Group (SWOG) regimen after diagnosis. They were given 4 cycles of azacitidine (Vidaza®) about 14 months prior to the study and 1 cycle of decitabine, about 6 months before the study.

[3] = test system: advanced or refractory acute leukemias; assay: Clinical study: dose-escalating treatment of acute leukemia with SNS-595 (Example 4); format: in vivo, human
Text: Minimum cycle length was 42 days for Arm A and 39 days for Arm B, respectively. Additional cycles were permitted if patients achieved stable disease or better. […] Pre- and post-dose bone marrow aspirates were obtained from a subset of patients to assess biomarkers.

[4] = test system: MDS that had transformed to refractory CMML (progressed to AML); assay: Clinical study: treatment with SNS-595 of a patient with MDS transformed to refractory CMML (Example 2); format: in vivo, human; conditions: 72 mg/m^2 once per week for three weeks; for Peripheral Blasts: slow IV push
Method: A patient with MDS that had transformed to refractory CMML was enrolled in this study. The patient was diagnosed about 26 months prior to the study and was given 8 cycles of azacitadine (Vidaza®) about 10 months prior to the study. They were then treated with mitoxantrone+VP16 for 1 cycle, about 4 months prior to the study. […] The patient had initial marrow blast count of 39%. The following observations were noted on days 15 and 35.

[5] = Arm A, weekly x3, dose escalation to 90 mg/m^2

Solubility [1]: increased solubility
Drug-related G3 & 4 events: diarrhea ([3]; Arm A, weekly x3): 1 patient
Drug-related G3 & 4 events: stomatitis ([3]; Arm A, weekly x3): 3 patients
G3 mucositis ([3]; Arm B, twice weekly x2, 40 mg/m^2): two patients out of 11
Compound: CN[C@H]1CN(c2ccc3c(=O)c(C(=O)O)cn(-c4nccs4)c3n2)C[C@@H]1OC [SNS-595, (+)-1,4-dihydro-7-[(3S,4S)-3-methoxy-4-(methylamino)-1-pyrrolidinyl]-4-oxo-1-(2-thiazolyl)-1,8-naphthyridine-3-carboxylic acid]
Clinical outcome of treatment ([2]; one patient): clinical benefit (i.e. hematological improvement) with reduction in blast counts
Absolute neutrophil count (ANC) ([2]; At the time of undergoing treatment with third cycle): 1600
Marrow blasts ([2]; Post Cycle 1, baseline 20% blasts): 8%
Circulating blasts ([2]; Post Cycle 2): 4%
Marrow blasts ([2]; Post Cycle 2): 1%
Circulating blasts ([2]; Post Cycle 3): 8%
Circulating blasts ([2]; Post Cycle 4): 12%
Dose-limiting toxicity (DLT) ([3]; Arm A, 27 mg/m^2 weekly dose (also had progressive disease)): G4 myelosuppression
Complete Responses (CR) ([3]; Arm A, 50 mg/m^2 dose level): 1 patient
Dose-limiting toxicity (DLT) ([3]; Arm A, 50 mg/m^2 weekly dose): prolonged myelosuppression
Response of a patient with AML and splenomegaly ([3]; Arm A, 72 mg/m^2): clinical benefit with reduction in splenomegaly and blast counts
Dose-limiting toxicity (DLT) ([3]; Arm A, 72 mg/m^2 weekly dose): bowel obstruction
Clinical activity: reductions in marrow blasts to ≦5% ([3]; Arm A, doses at or above 50 mg/m^2): 5 patients
Non-dose-limiting toxicities (non-DLTs) [3, 5]: nausea/vomiting and diarrhea
Number of dose-limiting toxicities (DLTs) observed [3, 5]: Three
Clinical activity: reductions in marrow blasts to ≦5% ([3]; Arm B, 40 mg/m^2): 1 patient
Complete Responses (CR) ([3]; Arm B, 40 mg/m^2 level): 1 patient
Response of a patient with AML and splenomegaly ([3]; Arm B, 50 mg/m^2 dose level, patient had G3 mucositis): partial response
Dose-limiting toxicity (DLT) of Grade (G) 3 mucositis ([3]; Arm B, twice weekly x2, 50 mg/m^2 dose level): 3 patients
Tolerability in patients with advanced leukemias ([3]; Arms A and B): well-tolerated
Clinical outcome of treatment ([4]; one patient): clinical benefit with reduction in splenomegaly and blast counts
Ultimate disease status ([4]; one patient): progressive disease
White blood cell (WBC) count, earlier value ('was') ([4]; Around Day 35, before rise with Necrotizing fasciitis (NF) infection): 7000
Absolute neutrophil count (ANC) ([4]; Around Day 35): 3139
Peripheral Blasts ([4]; Around Day 35, one patient): 33%
White blood cell (WBC) count ([4]; Around Day 35, patient had Necrotizing fasciitis (NF) infection): 16000
Absolute neutrophil count (ANC) ([4]; Day 15): 94
White blood cell (WBC) count ([4]; Day 15): 600
Peripheral Blasts ([4]; Day 15, one patient): No blasts
